Laboratory results reported in article PMC11675580, “Supersaturated Gel Formulation (SGF) of Atorvastatin at a Maximum Dose of 80 mg with Enhanced Solubility, Dissolution, and Physical Stability” (Gels, 2024).

Test: Drug release kinetics (first-order fit)
Assay type: physicochemical
Source text: The drug release data was fitted to kinetic models of first-order, and the coefficient of determination (r^2) was indicative of best-fit model to describe drug release kinetics.

CC(C)c1c(C(=O)Nc2ccccc2)c(-c2ccccc2)c(-c2ccc(F)cc2)n1CC[C@@H](O)C[C@@H](O)CC(=O)O [ATR, Atorvastatin calcium trihydrate]
Drug release rate constant (first-order rate constant, K1) (Water, release data until 30 min): 1.092
Drug release rate constant (first-order rate constant, K1) (pH 1.2, release data until 30 min): 0.608
Drug release rate constant (first-order rate constant, K1) (pH 4.0, release data until 30 min): 0.752
Drug release rate constant (first-order rate constant, K1) (pH 6.8, release data until 30 min): 1.040
